Activity calls are given as the source filed them. No cut-off for these calls is given here.
Tests used:
Yellow fever virus [1] = test: Antiviral activity against 10^2 CCID50 Yellow fever virus Jimenez infected in syrian golden hamster assessed as mean day of death […] at 400 mg/kg/day, po administered twice daily for 8 days started 4 hrs prior to viral infection relative to control; type: functional
Yellow fever virus [2] = test: Antiviral activity against 10^2 CCID50 Yellow fever virus Jimenez infected in syrian golden hamster assessed as serum AST level at 10 mg/kg/day, po administered twice daily for 8 days started 4 hrs prior to viral infection; type: functional, organism-based
Yellow fever virus [3] = test: Antiviral activity against 10^2 CCID50 Yellow fever virus Jimenez infected in syrian golden hamster assessed as serum ALT level at 400 mg/kg/day, po administered daily for days started 2 day post viral challenge; type: functional
Yellow fever virus [4] = test: Antiviral activity against 10^2 CCID50 Yellow fever virus Jimenez infected in syrian golden hamster assessed as mean day of death […] at 400 mg/kg/day, po administered twice daily for 8 days started 3 day post infection; type: functional
Yellow fever virus [5] = test: Antiviral activity against 10^2 CCID50 Yellow fever virus Jimenez infected in syrian golden hamster assessed as mean day of death […] at 100 mg/kg/day, po administered twice daily for 8 days started 4 hrs prior to viral infection relative to control; type: functional
Yellow fever virus [6] = test: Antiviral activity against 10^2 CCID50 Yellow fever virus Jimenez infected in syrian golden hamster assessed as mean day of death […] at 200 mg/kg/day, po administered twice daily for 8 days started 4 hrs prior to viral infection relative to control; type: functional
Yellow fever virus [7] = test: Antiviral activity against 10^2 CCID50 Yellow fever virus Jimenez infected in syrian golden hamster assessed as serum AST level at 400 mg/kg/day, po administered daily for days started 1 day post viral challenge; type: functional
Yellow fever virus [8] = test: Antiviral activity against 10^2 CCID50 Yellow fever virus Jimenez infected in syrian golden hamster assessed as survival of animal at 400 mg/kg/day, po administered twice daily for 8 days started 4 hrs prior to viral infection; type: functional, organism-based
Yellow fever virus [9] = test: Antiviral activity against 10^2 CCID50 Yellow fever virus Jimenez infected in syrian golden hamster assessed as serum AST level at 400 mg/kg/day, po administered daily for days started 5 day post viral challenge; type: functional
Yellow fever virus [10] = test: Antiviral activity against 10^2 CCID50 Yellow fever virus Jimenez infected in syrian golden hamster assessed as survival of animal at 400 mg/kg/day, po administered twice daily for 8 days started 2 day post viral infection; type: functional, organism-based
Yellow fever virus [11] = test: Antiviral activity against 10^2 CCID50 Yellow fever virus Jimenez infected in syrian golden hamster assessed as serum AST level at 400 mg/kg/day, po administered daily for days started 2 day post viral challenge; type: functional
Yellow fever virus [12] = test: Antiviral activity against 10^2 CCID50 Yellow fever virus Jimenez infected in syrian golden hamster assessed as mean day of death of mice at 400 mg/kg/day, po administered twice daily for 8 days started 4 day post infection; type: functional
Yellow fever virus [13] = test: Antiviral activity against 10^2 CCID50 Yellow fever virus Jimenez infected in syrian golden hamster assessed as serum AST level in surviving animals at 400 mg/kg/day, po administered 4 days post viral infection; type: functional
Yellow fever virus [14] = test: Antiviral activity against 10^2 CCID50 Yellow fever virus Jimenez infected in syrian golden hamster assessed as serum survival of animal at 200 mg/kg/day, po administered twice daily for 8 days started 4 hrs prior to viral infection; type: functional, organism-based

With `NC(=O)c1nc(F)cnc1O` [FAVIPIRAVIR] the Time (Yellow fever virus [1]) was 6 days, the Activity (Yellow fever virus [2]) was “inactive” and the Activity (Yellow fever virus [3]) was 84 IU/L. For the same compound, the Time (Yellow fever virus [4]) was 7 days, the Time (Yellow fever virus [5]) was 7.1 days and the Time (Yellow fever virus [6]) was over 21 days. For the same compound, the Activity (Yellow fever virus [7]) was 52 IU/L, the Activity (Yellow fever virus [8]) was “Active” and the Activity (Yellow fever virus [9]) was 212 IU/L. The Activity (Yellow fever virus [10]) was “Active”, the Activity (Yellow fever virus [11]) was 75 IU/L and the Time (Yellow fever virus [12]) was 6.5 days. The Activity (Yellow fever virus [13]) was 132 IU/L and the Activity (Yellow fever virus [14]) was “Active”.

From ChEMBL document CHEMBL1629577, “Activity of T-705 in a hamster model of yellow fever virus infection in comparison with that of a chemically related compound, T-1106” (Antimicrob Agents Chemother, 2009)
